The source of these data is patent US20260199212A1, “USE OF L-CARNOSINE AGAINST SOLAR ELASTOSIS” (SYMRISE AG, priority 2022, published 2026).

The subject of test [1] is fibrillin-1. The test can be described thus: Fibrillin-1 immunostaining in the papillary dermis of skin explants, semi-quantified by image analysis. The class given is cell-based, human. The conditions noted are these: after infrared irradiation. As to the method:
(§1) Human skin explants of an average diameter of 12 mm (+1 mm) were prepared on an abdo-plasty coming from a person with a phototype II according to Fitz-patrick skin colour classification. The explants were kept in survival in BEM culture medium (BIO-EC's Explants Medium) at 37° C. in a humid, 5%-CO2 atmosphere.
(§2) Compositions A and B were applied at the rate of 2 μL per 1 cm^2 skin sample (~2 mg/cm^2) and spread using a small spatula on day 0, day 1, day 2, day 3 and day 6 (30 min before infrared irradiation exposure). […] The culture medium was half renewed (1 ml per well) on day 2, day 3 and day 6.
(§3) On day 6, the culture media of all the batches was replaced by HBSS (Hank's Balanced Saline Solution; 1 ml per explant). The batches IR, IR-C2, and IR-T were irradiated using a infrared lamp (Dr FISCHER 1000W, 235V 2500K; 760-3000 nm), for 1:24 h (720 J/cm^2; 140 mW/cm^2). The non-irradiated batches were kept in HBSS in the dark. […]
Nuclei have been post-stained with propidium iodide. The staining was assessed by microscopical observation and semi-quantified by image analysis. […]
Fibrillin-1 immunostaining was assessed by microscopical observation of skin sections with semi-quantification by image analysis using the software cellSens (Olympus).
(§4) Analysed zone: ROI including the papillary dermis.
(§5) Number of analysed images per batch: 9. […]

For test [2], the system named is tropoelastin. In words: Tropoelastin immunostaining in the papillary dermis of skin explants, semi-quantified by image analysis. To be noted: when applying L-Carnosine. Format: cell-based, human. As to the method: as §1, §2, §3
Nuclei have been post stained with propidium iodide. The staining was assessed by microscopical observation and semi-quantified by image analysis. […]
Tropoelastin immunostaining was assessed by microscopical observation of skin sections with semi-quantification by image analysis using the software cellSens (Olympus).
as §4, §5

Consider `NCCC(=O)N[C@@H](Cc1cnc[nH]1)C(=O)O` [L-Carnosine], for which the “amount of fibrillin-1 in the dermis” value in test [1] was “strongly increase”. Besides, the “amounts of elastin after infrared irradiation versus without infrared irradiation” value in test [2] is on record as “not significantly different”.
